These results are taken from patent US10245264B2, “Substituted imidazo[1,2-a]pyrazines as soluble guanylate cyclase activators” (Merck Sharp & Dohme Corp., priority 2015, dated 2019).

In this assay the target is T1, sGC α1/β1 heterodimer stably expressed in CHO-K1 cells (CHO-K1/sGC) (Homo sapiens, UniProt Q02108+Q02153).
T1 construct: expressed in transfected cells
T1 sequence (Q02108 1-690): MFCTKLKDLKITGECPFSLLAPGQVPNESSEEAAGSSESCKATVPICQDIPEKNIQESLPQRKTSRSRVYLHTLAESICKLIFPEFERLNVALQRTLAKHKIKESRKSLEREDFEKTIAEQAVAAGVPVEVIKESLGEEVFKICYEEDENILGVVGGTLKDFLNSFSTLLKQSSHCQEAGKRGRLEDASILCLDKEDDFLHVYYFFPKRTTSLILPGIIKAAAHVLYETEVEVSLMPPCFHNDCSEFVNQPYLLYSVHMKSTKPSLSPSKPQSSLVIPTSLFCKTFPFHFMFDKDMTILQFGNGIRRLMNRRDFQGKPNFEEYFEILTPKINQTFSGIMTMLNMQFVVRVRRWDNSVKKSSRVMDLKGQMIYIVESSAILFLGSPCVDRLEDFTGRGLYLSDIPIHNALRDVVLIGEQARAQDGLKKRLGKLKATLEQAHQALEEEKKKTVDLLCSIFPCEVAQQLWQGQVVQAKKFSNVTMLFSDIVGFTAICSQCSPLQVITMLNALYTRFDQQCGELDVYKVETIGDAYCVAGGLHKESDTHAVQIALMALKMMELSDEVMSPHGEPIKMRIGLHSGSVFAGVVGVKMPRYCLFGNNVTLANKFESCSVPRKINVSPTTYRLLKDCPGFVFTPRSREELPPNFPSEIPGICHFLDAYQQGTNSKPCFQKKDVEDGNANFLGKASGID
T1 sequence (Q02153 1-619): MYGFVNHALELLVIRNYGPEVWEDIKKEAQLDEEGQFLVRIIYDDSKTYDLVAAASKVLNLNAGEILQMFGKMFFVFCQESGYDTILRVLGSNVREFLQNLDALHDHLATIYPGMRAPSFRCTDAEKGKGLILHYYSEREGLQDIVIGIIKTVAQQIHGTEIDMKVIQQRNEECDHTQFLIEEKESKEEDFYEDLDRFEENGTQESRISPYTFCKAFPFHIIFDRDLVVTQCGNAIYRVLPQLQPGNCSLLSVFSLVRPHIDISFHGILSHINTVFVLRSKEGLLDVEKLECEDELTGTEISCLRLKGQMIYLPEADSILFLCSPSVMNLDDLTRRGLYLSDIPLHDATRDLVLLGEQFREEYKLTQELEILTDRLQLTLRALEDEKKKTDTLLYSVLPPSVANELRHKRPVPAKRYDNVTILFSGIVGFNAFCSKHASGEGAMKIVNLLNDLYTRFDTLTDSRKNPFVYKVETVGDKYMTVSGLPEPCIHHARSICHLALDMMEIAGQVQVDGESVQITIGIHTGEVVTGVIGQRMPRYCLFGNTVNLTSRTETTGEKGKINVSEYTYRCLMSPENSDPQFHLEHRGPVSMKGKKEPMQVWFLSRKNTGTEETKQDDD
Briefly: Cell-based sGC functional assay (CASA assay), cGMP generation by HTRF. The settings on record: for Emax: CHO-K1, maximum cGMP production of Compound A set to 100% activation, read-out: % Act. (percent activation relative to Compound A); for EC50: CHO-K1/sGC cells, 1 hr at 37° C., 4P fit, presence or absence of DETA-NO not given, read-out: IP (nM) (inflection point); for % Act. (percent activation relative to Compound A): maximum cGMP production of Compound A set to 100% activation. The text has this: Biological Assay 1: Cell-Based sGC Functional Assay (CASA Assay) Rationale
sGC is a heme-containing enzyme that converts GTP to secondary messenger cGMP. Increases in cGMP levels affect several physiological processes including vasorelaxation through multiple downstream pathways. […] Heme-dependent activators (HDAs) preferentially activate sGC containing a ferrous heme group. To determine the effect of sGC activators on enzyme activity, the CASA assay was developed to monitor the generation of cGMP in a cell line that stably expresses the heterodimeric sGC protein.
A CHO-K1 cell line stably expressing the sGC α1/β1 heterodimer was generated using a standard transfection protocol. CHO-K1 cells were transfected with plasmids pIREShyghsGCα1 and pIRESneo-hsGCβ1 simultaneously using FUGENE reagent. Clones that stably express both subunits were selected with hygromycin and neomycin for ˜2 weeks. Clone #7 was chosen for the assay and was designated CHO-K1/sGC. CHO-K1/sGC cells were maintained in F-K12 medium containing 10% heat-inactivated Fetal Bovine Serum (FBS), 100 μg/mL penicillin/streptomycin, 0.5 mg/mL hygromycin and 0.25 mg/mL G418. The cells were then cryopreserved in LN2. On the day of the assay, cells were thawed and resuspended in EBSS Assay Buffer (Sigma, E3024) supplemented with 5 mM MgCl2, 10 mM HEPES (4-(2-hydroxyethyl)piperazine-1-ethanesulfonic acid) and 0.05% BSA (bovine serum albumin) (EAB) and cell density was then adjusted to 4×10^5/mL with EAB. IBMX (3-isobutyl-1-methylxanthin, 0.5 mM) was added to inhibit degradation of cGMP. Compounds were diluted from DMSO stock solutions and added to the assay at a final DMSO concentration of 2.5%. Cells were incubated with compounds in the presence and absence of 1 μM of Diethylenetriamine/nitric oxide adduct (DETA-NO; Sigma, 17018) for 1 hr at 37° C. At the end of the incubation period, the reaction was terminated and the cells were lysed with the detection reagents from Cisbio Kits. The level of intracellular cGMP was determined using an HTRF-based assay kit (CisBio, 62GM2PEC), which detects the displacement of a fluorescence labeled cGMP from its specific antibody. The cGMP produced by test compounds was directly compared to the maximum cGMP production (this value was set to equal 100% activation.) of the published sGC-HDA Compound A:
[drawing 101] (Example 1 in WO 2010/065275, published Jun. 10, 2010). The test compounds' activities were then expressed as a percentage of Compound A, the standard in every experiment. This percent activation was calculated either in the presence or absence of DETA-NO which was then plotted. IP and maximum fold induction was derived using ADA analysis software for 4P fit.
The compounds in the Examples of the instant invention had inflection points (IP) less than or equal to 10 μM and many had IPs less than or equal to about 1 μM.
On the technique in general: In TR-FRET formats the signal depends on donor and acceptor labels being close together.

Regarding `CC(Nc1nc(-c2nc(N)c3c(n2)NC(=O)C3(C)c2ccc(Cl)cc2)cn2ccnc12)c1ccccc1` (stereo not shown) [Example 73, 4-amino-5-(4-chlorophenyl)-5-methyl-2-{8-[(1-phenylethyl)amino]imidazo [1,2-a]pyrazin-6-yl}-5,7-dihydro-6H-pyrrolo[2,3-d] pyrimidin-6-one], the Emax was 81% and the EC50 was 336 nM.
Take `CC1(c2ccc(Cl)cc2)C(=O)Nc2nc(-c3cn4ccnc4c(OCC4CCCOC4)n3)nc(N)c21` (single isomer, unassigned; slow eluting) [Example 67B, 4-amino-5-(4-chlorophenyl)-5-methyl-2-[8-(tetrahydro-2H-pyran-3-ylmethoxy)imidazo[1,2-a]pyrazin-6-yl]-5,7-dihydro-6H-pyrrolo [2,3-d] pyrimidin-6-one (slow eluting)]: the EC50 was determined as 501 nM and the “% Act. (percent activation relative to Compound A)” value came out at 94%.
For `CC1(c2ccc(F)cc2)C(=O)Nc2nc(-c3cn4ccnc4c(Oc4cccc(F)c4F)n3)nc(N)c21` (stereo not shown) [Example 15A, 4-amino-2-[8-(2,3-difluorophenoxy)imidazo[1,2-a]pyrazin-6-yl]-5-(4-fluorophenyl)-5-methyl-5,7-dihydro-6H-pyrrolo[2,3-d] pyrimidin-6-one], the Emax worked out at 104% and the EC50 was 23 nM.
For `CC1(c2ccccc2)C(=O)Nc2nc(-c3cn4ccnc4c(Oc4cc(F)cc(F)c4F)n3)nc(N)c21` (stereo not shown) [Example 12B, 4-amino-5-methyl-5-phenyl-2-[8-(2,3,5-trifluoro-phenoxy)imidazo [1,2-a]pyrazin-6-yl]-5,7-dihydro-6H-pyrrolo[2,3-d] pyrimidin-6-one] the same measures were 99% and 47 nM.
On to `CC1(c2ccc(F)cc2)C(=O)Nc2nc(-c3cn4ccnc4c(NCC4CCCCC4)n3)nc(N)c21` (stereo not shown) [Example 55A, 4-amino-2-{8-[(cyclohexyl-methyl)amino]imidazo[1,2-a]pyrazin-6-yl}-5-(4-fluoro-phenyl)-5-methyl-5,7-dihydro-6H-pyrrolo[2,3-d] pyrimidin-6-one], for which the Emax was 92% and the EC50 came out at 35 nM.
`CC1(c2ccc(F)cc2)C(=O)Nc2nc(-c3cn4ccnc4c(Oc4cncc(C(F)(F)F)c4)n3)nc(N)c21` (stereo not shown) [Example 21A, 4-amino-5-(4-fluorophenyl)-5-methyl-2-(8-{[5-(trifluoromethyl)pyridin-3-yl]oxy}imidazo[1,2-a]pyrazin-6-yl)-5,7-dihydro-6H-pyrrolo[2,3-d] pyrimidin-6-one]: the Emax is 137% and the EC50 was 1060 nM.
For `CC1(c2ccc(F)cc2)C(=O)Nc2nc(-c3cn4cc(C(F)(F)F)nc4c(Oc4cccc(F)c4)n3)nc(N)c21` (stereo not shown) [Example 35A, 4-Amino-2-(8-(3-fluorophenoxy)-2-(trifluoromethyl)imidazo[1,2-a]pyrazin-6-yl)-5-(4-fluorophenyl)-5-methyl-5H-pyrrolo[2,3-d]pyrimidin-6(7H)-one], in that order: 94% and 468 nM.
For `CC1(c2ccccc2)C(=O)Nc2nc(-c3cn4ccnc4c(Oc4ccccc4F)n3)nc(N)c21` (stereo not shown) [Example 5B, 4-amino-2-[8-(2-fluorophenoxy)imidazo[1,2-a]pyrazin-6-yl]-5-methyl-5-phenyl-5,7-dihydro-6H-pyrrolo[2,3-d] pyrimidin-6-one] the same measures were 107% and 80 nM.
For `CC1(c2ccc(F)cn2)C(=O)Nc2nc(-c3cn4ccnc4c(OCC4CC(F)(F)C4)n3)nc(N)c21` (stereo not shown) [Example 33B, 4-amino-2-{8-[(3,3-difluoro-cyclobutyl)methoxy]imidazo [1,2-a]pyrazin-6-yl}-5-(5-fluoro-pyridin-2-yl)-5-methyl-5,7-dihydro-6H-pyrrolo[2,3-d] pyrimidin-6-one] the same measures were 112% and 1040 nM.
With `CC1(c2ccccc2)C(=O)Nc2nc(-c3cn4ccnc4c(Oc4cccc(F)c4)n3)nc(N)c21` (stereo not shown) [Example 8B, 4-amino-2-[8-(3-fluorophenoxy)imidazo[1,2-a]pyrazin-6-yl]-5-methyl-5-phenyl-5,7-dihydro-6H-pyrrolo[2,3-d] pyrimidin-6-one], the Emax is 110% and the EC50 amounted to 22 nM.
As for `CCC1(CNc2nc(-c3nc(N)c4c(n3)NC(=O)C4(C)c3ccc(F)cc3)cn3ccnc23)CC1` (stereo not shown) [Example 54A, 4-amino-2-(8-{[(1-ethyl-cyclopropyl)methyl]amino}imidazo[1,2-a]pyrazin-6-yl)-5-(4-fluoro-phenyl)-5-methyl-5,7-dihydro-6H-pyrrolo[2,3-d] pyrimidin-6-one], the Emax was found to be 98% and the EC50 worked out at 266 nM.
For `CC1(c2ccc(F)cc2)C(=O)Nc2nc(-c3cn4cc(C(F)(F)F)nc4c(Oc4ccccc4)n3)nc(N)c21` (stereo not shown) [Example 36A, 4-amino-5-(4-fluorophenyl)-5-methyl-2-(8-phenoxy-2-(trifluoromethyl)imidazo[1,2-a]pyrazin-6-yl)-5H-pyrrolo[2,3-d] pyrimidin-6(7H)-one], in that order: 129% and 1470 nM.
Regarding `CC(Nc1nc(-c2nc(N)c3c(n2)NC(=O)C3(C)c2ccc(Cl)cc2)cn2ccnc12)c1ccccc1` (stereo not shown) [Example 74, 4-amino-5-(4-chlorophenyl)-5-methyl-2-{8-[(1-phenylethyl)amino]imidazo [1,2-a]pyrazin-6-yl}-5,7-dihydro-6H-pyrrolo[2,3-d] pyrimidin-6-one], the EC50 stood at 231 nM and the “% Act. (percent activation relative to Compound A)” value amounted to 87%.
`CC1(c2ccc(Cl)cc2)C(=O)Nc2nc(-c3cn4ccnc4c(NCC4CCCOC4)n3)nc(N)c21` (single isomer, unassigned; fast eluting) [Example 72A, 4-amino-5-(4-chlorophenyl)-5-methyl-2-{8-[(tetrahydro-2H-pyran-3-ylmethyl)amino]imidazo [1,2-a]pyrazin-6-yl}-5,7-dihydro-6H-pyrrolo[2,3-d] pyrimidin-6-one (fast eluting)]: the Emax stood at 96% and the EC50 came out at 1080 nM.
